Laboratory results from patent US8283358B2, “N-sulfonamido polycyclic pyrazolyl compounds” (Elan Pharmaceuticals, Inc., priority 2008, dated 2012).

Test system: gamma secretase in CHO cells expressing APPSwe, NotchΔE and a Notch responsive luciferase reporter gene (SNC-204B8)
Experiment: SNC dual cell assay for simultaneous assay of A-beta reduction and Notch signaling (Example D)
Details: ratio of Notch IC50/Aβ EC50 determined as described in Example D (SNC dual cell assay)
Description: In order to facilitate testing the potency of gamma-secretase inhibitors on two substrates (APP and Notch) simultaneously, a dual-assay using a CHO cell line stably expressing APPSwe, a Notch substrate lacking the ecto-domain, and a Notch responsive Luciferase reporter gene was developed. CHOSwe cells stably over-express the Swedish FAD isoform of APP, and secrete large amounts of Aβ peptide into the conditioned media from endogenous β- and γ-secretase enzyme activity. A Notch intracellular domain (NICD) responsive reporter gene, and the constitutive gamma-secretase Notch substrate, NotchΔE, were stably introduced into CHOSwe cells in a two step process. CHOSwe cells were first stably transfected to express a NICD responsive luciferase reporter gene construct (pGL2-CBF-Luc). […] Stable cell lines expressing rat NotchΔE were then identified in the second step by including a gamma-secretase inhibitor in the selection process (to suppress Notch/NICD toxicity) following transfection of the rat Notch-ΔE construct. […] This vector drives expression of a truncated rat Notch construct corresponding to the c-terminal product following ecto-domain shedding of full length rat Notch protein. The c-terminal product is a constitutive substrate for gamma-secretase cleavage, resulting in release of the cytoplasmic Notch intracellular domain (NICD) product, which translocates to the nucleus and relieves CBF repressed genes. Subsequently, pIRES-ZEDN transfected cells were re-plated at low density in the presence of test compound, and selected with three antibiotics (G418 (0.5 mg/ml)/Hygro (1 mg/ml)/Puro (2.5 mg/ml)). The antibiotic-resistant colonies (named SNC clones for the dual-assay components: APPSwe/NotchΔE/CBF) were isolated and expanded for characterization of Aβ secretion, and NICD responsive reporter gene activity (i.e. luciferase signal in the presence versus absence of test compound). […] A typical dual-assay experiment was performed as follows: Day 1, the SNC cells were plated in 96-well assay plates in inhibitor-free media. Day 2, the cells were fed with fresh media (inhibitor free) and treated with test compounds over a concentration range 0 nM to 40,000 nM (in 10× incremental dilutions) one hour after the media change. The cells were treated with compounds overnight at 37° C. […] For the Notch signaling assay, the cells were lysed and luciferase activity from the lysate was measured using the Promega kit (see below). Day 4, Aβ-ELISA part II was conducted using 3D6-biotin/AP-streptavidin antibodies.

| Structure (SMILES) | Selectivity Ratio (Notch IC50/Aβ ED50) |
| --- | --- |
| O=S(=O)(c1ccc(C(F)(F)F)nc1)N1C2Cc3[nH]ncc3C1CC(c1ccc3c(c1)OCO3)C2 (racemic) [(±)-6-(1,3-benzodioxol-5-yl)-10-{[6-(trifluoromethyl)pyridin-3-yl]sulfonyl}-4,5,6,7,8,9-hexahydro-1H-4,8-epiminocycloocta[c]pyrazole] | (+) ((+) means a ratio from about 50 to about 99) |
| O=C1c2[nH]ncc2C2c3c(F)cccc3C1N2S(=O)(=O)c1ccc(C(F)(F)F)nc1 (single isomer, unassigned; (-)) [(−)-5-fluoro-11-{[6-(trifluoromethyl)pyridin-3-yl]sulfonyl}-4,9-dihydro-4,9-epiminobenzo[4,5]cyclohepta[1,2-c]pyrazol-10(1H)-one] | (++++) ((++++) means a ratio of Notch IC50/Aβ EC50 (determined as described in Example D) of >200) |
| O=S(=O)(c1ccc(C(F)(F)F)nc1)N1C2Cc3[nH]ncc3C1c1ncc(F)cc12 (racemic) [(±)-7-fluoro-11-{[6-(trifluoromethyl)pyridin-3-yl]sulfonyl}-1,4,9,10-tetrahydro-4,9-epiminopyrazolo[3′,4′: 5,6]cyclohepta[1,2-b]pyridine] | (+) ((+) means a ratio from about 50 to about 99) |
| O=S(=O)(c1ccc(C(F)(F)F)nc1)N1C2Cc3[nH]ncc3C1CC(c1nc(C(F)(F)F)cs1)C2 (racemic) [(±)-10-{[6-(trifluoromethyl)pyridin-3-yl]sulfonyl}-6-[4-(trifluoromethyl)-1,3-thiazol-2-yl]-4,5,6,7,8,9-hexahydro-1H-4,8-epiminocycloocta[c]pyrazole] | (+++) ((+++) means a ratio from about 150 to about 199) |
| O=S(=O)(c1ccc(C(F)(F)F)cc1)N1C2c3cn[nH]c3C(F)C1c1cccc(F)c12 (single isomer, unassigned; (+)) [(+)-5,10-difluoro-11-{[4-(trifluoromethyl)phenyl]sulfonyl}-1,4,9,10-tetrahydro-4,9-epiminobenzo[4,5]cyclohepta[1,2-c]pyrazole] | (++) ((++) means a ratio from about 100 to about 149) |
| O=S(=O)(c1ccc(C(F)(F)F)cc1)N1C2Cc3[nH]ncc3C1CC(c1cccc(-n3cccn3)c1)C2 (racemic) [(±)-6-[3-(1H-pyrazol-1-yl)phenyl]-10-{[4-(trifluoromethyl)phenyl]sulfonyl}-4,5,6,7,8,9-hexahydro-1H-4,8-epiminocycloocta[c]pyrazole] | (+) ((+) means a ratio from about 50 to about 99) |
